One compound from patent US7662860B2 (priority 2003, dated 2010) can be followed below.

For one data set, the system named is SARS-CoV virus. The class given is cell-based. As to conditions: for CPE / Protective ratio of the infected cells: Vero-E6 cells infected with SARS-CoV; for Protective ratio of the infected cells: >1.5 times judged active.

SMILES strings stand for the structures. Like-named read-outs stand apart in the source and are kept apart here.

Turning to `CN(C)CCCSc1ccccc1NC(=O)C=Cc1ccccc1` [cinanserin, 2′-(3-dimethylaminopropylthio)cinnamanilide], the CPE result in the data set on SARS-CoV virus (4 ug/mL) and in the data set with SARS-CoV virus (20 ug/mL) was “+ (<25% +)” throughout. Besides, the results for the “Protective ratio of the infected cells” value in the data set with SARS-CoV virus (4 ug/mL) and in the data set on SARS-CoV virus (20 ug/mL) were 3.69 times and 3.85 times, respectively. Moreover, the “protective activity of inhibiting SARS-CoV from infecting Vero-E6 cell” value in the data set with SARS-CoV virus (result in words) is on record as “evident protective activity”. Moreover, the “Cytotoxicity of the sample” value in the data set with Vero-E6 cell is “—* (key: *: if the cytotoxicity of the sample is >50% when comparing with the cell control, CPE isn't evaluated, and the protective ratio isn't calculated)”.
